Data on 33 compounds can be found in ChEMBL document CHEMBL3124908, “Design, synthesis, and evaluation of novel heteroaromatic analogs of curcumin as anti-cancer agents” (Eur J Med Chem, 2014).

pIC50: −log10 of the molar value.

One data set concerns PC-3. Briefly: Cytotoxicity against human PC3 cells after 5 days by trypan blue exclusion assay. The class given is functional, cell-based. The settings on record: PC-3, 120 h.
The test system of a further data set is DU-145. As to the kind of experiment: Cytotoxicity against human DU145 cells after 5 days by trypan blue exclusion assay. The class given is functional, cell-based. The following applies: DU-145, 120 h.
A short description of data set [1]: Cytotoxicity against human MCF10A cells up to 1 uM after 5 days by trypan blue exclusion assay. The data set is classed as cell-based. The following applies: mcf-10a, 120 h.
The test system of a further data set is A549. As to the kind of experiment: Cytotoxicity against human A549 cells after 5 days by trypan blue exclusion assay. The class given is functional, cell-based. The settings on record: A549, 120 h.
The subject of the next data set is MDA-MB-231. Briefly: Cytotoxicity against human MDA-MB-231 cells after 5 days by trypan blue exclusion assay. The settings on record: MDA-MB-231, 120 h. The data set is classed as functional, cell-based.
Another data set relates to HeLa. Briefly: Cytotoxicity against human HeLa cells after 5 days by trypan blue exclusion assay. The data set is classed as functional, cell-based. The settings on record: 120 h.

Take `Cc1cc(/C=C2\CN(C)C/C(=C\c3cc(C)no3)C2=O)on1`: the negative logarithm of the IC50 (pIC50) (as a rule, −log10 of the IC50, conventionally taken in molar units) in the data set with PC-3 was 6.89; in the data set on DU-145, 6.16.

`Cn1nccc1/C=C1\CCC/C(=C\c2ccnn2C)C1=O`: the negative-log IC50 (pIC50) with PC-3 is 6.59; in the data set on DU-145 it was 6.14.

For the compound `CCC(C)n1ccnc1/C=C1\CN(C)C/C(=C\c2nccn2C(C)CC)C1=O` (centres undefined), the pIC50 with PC-3 was 5.18; in the data set on DU-145 it was 8.00.

On to `Cn1ccnc1/C=C1\CCC/C(=C\c2nccn2C)C1=O`, for which the results for the pIC50 in the data set on PC-3 and in the data set with DU-145 were 7.03 and 6.20, respectively.

For the compound `Cc1cc(/C=C/C(=O)/C=C/c2cc(C)on2)no1`, the results for the pIC50 with PC-3 and in the data set with DU-145 were 6.60 and 7.38, respectively.

With `CCC(C)n1ccnc1/C=C1\CCC/C(=C\c2nccn2C(C)CC)C1=O` (centres undefined), the negative logarithm of the IC50 (pIC50) was 6.08 in the data set with PC-3 and 6.60 with DU-145.

For the compound `CN1C/C(=C\c2nccs2)C(=O)/C(=C/c2nccs2)C1`, the pIC50 in the data set with PC-3 was 6.38; in the data set on DU-145, 7.34.

Turning to `CN1C/C(=C\c2cnn(C)c2)C(=O)/C(=C/c2cnn(C)c2)C1`, in the data set with PC-3, the negative logarithm of the IC50 (pIC50) was 4.12.

Take `CN1C/C(=C\c2nccn2C)C(=O)/C(=C/c2nccn2C)C1`: the values for the pIC50 in the data set on PC-3 and with DU-145 were 7.03 and 6.89, respectively.

With `CC(C)Cn1ccnc1/C=C/C(=O)/C=C/c1nccn1CC(C)C`, the pIC50 is 7.34 in the data set with PC-3; 7.24 in the data set on DU-145; 6.96 in the data set with A549; 6.82 in the data set with MDA-MB-231; 6.41 with HeLa. Besides, the Activity entry in data set [1] is recorded as “Non-toxic”.

`Cc1cc(/C=C/C(=O)/C=C/c2cc(C)no2)on1`: the pIC50 in the data set with PC-3 is 7.39; in the data set with DU-145 it was 7.80; in the data set with A549, 6.80; with MDA-MB-231, 6.81; in the data set on HeLa, 6.72. In addition, the Activity entry in data set [1] is “Non-toxic”.

In the case of `CC(C)Cn1ccnc1/C=C1\CCC/C(=C\c2nccn2CC(C)C)C1=O`, the pIC50 was 6.33 in the data set on PC-3 and 6.44 in the data set with DU-145.

As to `CC(C)n1ccnc1/C=C1\CCC/C(=C\c2nccn2C(C)C)C1=O`, the results for the pIC50 in the data set with PC-3 and with DU-145 were 6.80 and 7.00, respectively.

Take `O=C1/C(=C/c2cscn2)CCC/C1=C\c1cscn1`: the pIC50 in the data set on PC-3 is 6.92; in the data set with DU-145, 7.12.

Consider `O=C1/C(=C/c2nccs2)CCC/C1=C\c1nccs1`, for which the negative-log IC50 (pIC50) with PC-3 was 6.96; in the data set with DU-145 it was 6.92.

Regarding `Cc1nc(/C=C2\CCC/C(=C\c3coc(C)n3)C2=O)co1`, the negative-log IC50 (pIC50) is 5.71 with PC-3 and 5.78 in the data set with DU-145.

Regarding `CN1C/C(=C\c2ccnn2C)C(=O)/C(=C/c2ccnn2C)C1`, the figures for the negative-log IC50 (pIC50) with PC-3 and with DU-145 were 5.99 and 5.79, respectively.

As to `CC(C)n1ccnc1/C=C/C(=O)/C=C/c1nccn1C(C)C`, the results for the pIC50 with PC-3 and in the data set on DU-145 were 7.05 and 7.27, respectively.

Consider `COc1cc(/C=C/C(=O)CC(=O)/C=C/c2ccc(O)c(OC)c2)ccc1O` [CURCUMIN], for which the pIC50 in the data set with PC-3 was 5.70; with DU-145 it was 6.52; in the data set on A549 it was 4.82; in the data set on MDA-MB-231, 6.06; in the data set on HeLa, 4.90.

Turning to `Cc1cc(/C=C2\CN(C)C/C(=C\c3cc(C)on3)C2=O)no1`, the pIC50 in the data set on PC-3 was 6.85; with DU-145 it was 7.47.

`CN1C/C(=C\c2cscn2)C(=O)/C(=C/c2cscn2)C1`: the pIC50 in the data set with PC-3 was 6.10; with DU-145, 6.37.

Consider `O=C(/C=C/c1cscn1)/C=C/c1cscn1`, for which the pIC50 in the data set on PC-3 was 7.03; with DU-145, 7.02.

In the case of `Cc1cc(/C=C2\CCC/C(=C\c3cc(C)no3)C2=O)on1`, the pIC50 in the data set with PC-3 is 7.27; in the data set with DU-145 it was 6.47.

In the case of `CC(C)n1ccnc1/C=C1\CN(C)C/C(=C\c2nccn2C(C)C)C1=O`, the pIC50 is 6.96 with PC-3 and 6.85 with DU-145.

As for `Cn1ccnc1/C=C/C(=O)/C=C/c1nccn1C`, the negative logarithm of the IC50 (pIC50) in the data set on PC-3 was 6.96; in the data set with DU-145, 7.24.

`CCC(C)n1ccnc1/C=C/C(=O)/C=C/c1nccn1C(C)CC` (centres undefined): the pIC50 was 7.20 in the data set with PC-3; 7.46 in the data set with DU-145; 7.00 in the data set on A549; 6.89 in the data set with MDA-MB-231; 7.21 with HeLa. Besides, the Activity entry in data set [1] is reported as “Non-toxic”.

As for `O=C(/C=C/c1ccccn1)/C=C/c1ccccn1`, the pIC50 with PC-3 was 7.48; in the data set on DU-145, 7.70; with A549, 7.29; in the data set on MDA-MB-231, 7.01; in the data set on HeLa it was 6.92. Besides, the Activity result in data set [1] was “Non-toxic”.

Turning to `Cc1nc(/C=C2\CN(C)C/C(=C\c3coc(C)n3)C2=O)co1`, the negative logarithm of the IC50 (pIC50) with PC-3 is 6.51; in the data set with DU-145 it was 7.12.

For the compound `Cc1nc(/C=C/C(=O)/C=C/c2coc(C)n2)co1`, the negative-log IC50 (pIC50) was 6.08 with PC-3 and 6.12 in the data set on DU-145.

Regarding `Cn1cc(/C=C2\CCC/C(=C\c3cnn(C)c3)C2=O)cn1`, the pIC50 with PC-3 was 3.89; with DU-145, 4.05.

Turning to `O=C(/C=C/c1nccs1)/C=C/c1nccs1`, the negative logarithm of the IC50 (pIC50) was 7.17 in the data set with PC-3 and 7.26 with DU-145.

For `Cc1cc(/C=C2\CCC/C(=C\c3cc(C)on3)C2=O)no1`, the negative logarithm of the IC50 (pIC50) with PC-3 and in the data set with DU-145 was 7.15 each time.

Consider `Cn1nccc1/C=C/C(=O)/C=C/c1ccnn1C`, for which the pIC50 in the data set on PC-3 was 6.89; with DU-145, 6.80.
